In ChEMBL document CHEMBL6087459 (J Med Chem, 2025):
Activity calls are given as the source filed them. The calls are words filed in the database; no cut-off is given here.

The compounds below were run against cAMP and cAMP-inhibited cGMP 3',5'-cyclic phosphodiesterase 10A (Homo sapiens) (UniProt Q9Y233) (assay: Inhibition of human PDE10A2 at 10 uM by Eurofins kinase assay relative to control). Details: not given.

| inhibition [%] | Structure (SMILES) |
| --- | --- |
| -5.5 | CCc1nn(C)c2nc(-c3ccc4c(c3)COB4O)nc(NCc3ccc(F)cc3)c12 |
| 24 | CCc1nn(C)c2nc(-c3ccc(B(O)O)cc3)nc(NCc3ccc(F)cc3)c12 |

The compounds below were run against cGMP-inhibited 3',5'-cyclic phosphodiesterase 3A (Homo sapiens) (UniProt Q14432) (assay: Inhibition of human PDE3A at 10 uM by Eurofins kinase assay relative to control). Details: not given.
Sequence of cGMP-inhibited 3',5'-cyclic phosphodiesterase 3A (Homo sapiens) (Q14432 whole entry): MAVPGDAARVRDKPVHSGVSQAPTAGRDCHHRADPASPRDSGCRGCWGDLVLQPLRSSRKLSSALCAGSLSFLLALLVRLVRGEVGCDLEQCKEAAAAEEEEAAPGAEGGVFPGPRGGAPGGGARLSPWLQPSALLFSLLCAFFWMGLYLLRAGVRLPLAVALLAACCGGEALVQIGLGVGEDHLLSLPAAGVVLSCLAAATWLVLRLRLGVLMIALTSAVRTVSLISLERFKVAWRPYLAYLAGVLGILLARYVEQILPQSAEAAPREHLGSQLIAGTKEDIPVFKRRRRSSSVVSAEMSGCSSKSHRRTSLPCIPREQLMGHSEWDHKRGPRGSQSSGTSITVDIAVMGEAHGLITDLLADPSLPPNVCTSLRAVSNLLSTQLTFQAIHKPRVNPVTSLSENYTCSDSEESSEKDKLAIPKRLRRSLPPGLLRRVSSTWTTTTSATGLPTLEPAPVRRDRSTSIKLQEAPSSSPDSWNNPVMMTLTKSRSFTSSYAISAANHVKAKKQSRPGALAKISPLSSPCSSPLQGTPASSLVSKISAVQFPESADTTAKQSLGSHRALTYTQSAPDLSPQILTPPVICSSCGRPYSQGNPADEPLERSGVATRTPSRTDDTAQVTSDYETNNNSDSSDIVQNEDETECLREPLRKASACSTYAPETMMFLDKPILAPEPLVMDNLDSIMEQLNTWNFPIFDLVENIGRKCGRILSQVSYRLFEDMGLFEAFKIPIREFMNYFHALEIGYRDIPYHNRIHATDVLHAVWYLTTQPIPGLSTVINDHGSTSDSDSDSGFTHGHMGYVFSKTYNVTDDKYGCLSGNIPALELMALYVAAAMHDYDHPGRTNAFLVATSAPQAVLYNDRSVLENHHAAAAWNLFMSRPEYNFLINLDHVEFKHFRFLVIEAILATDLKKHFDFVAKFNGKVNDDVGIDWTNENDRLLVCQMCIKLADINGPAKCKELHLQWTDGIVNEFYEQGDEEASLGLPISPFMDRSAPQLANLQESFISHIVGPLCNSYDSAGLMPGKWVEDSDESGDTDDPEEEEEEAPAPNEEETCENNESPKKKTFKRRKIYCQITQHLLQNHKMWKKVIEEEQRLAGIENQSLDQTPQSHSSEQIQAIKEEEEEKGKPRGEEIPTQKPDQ

| inhibition [%] | Structure (SMILES) |
| --- | --- |
| 17 | CCc1nn(C)c2nc(-c3ccc4c(c3)COB4O)nc(NCc3ccc(F)cc3)c12 |
| 62 | CCc1nn(C)c2nc(-c3ccc(B(O)O)cc3)nc(NCc3ccc(F)cc3)c12 |

These compounds were tested against High affinity 3',5'-cyclic-AMP phosphodiesterase 7A (Homo sapiens) (UniProt Q13946) (assay: Inhibition of human PDE7A1 at 10 uM by Eurofins kinase assay relative to control). Details: not given.
Sequence of High affinity 3',5'-cyclic-AMP phosphodiesterase 7A (Homo sapiens) (Q13946 whole entry): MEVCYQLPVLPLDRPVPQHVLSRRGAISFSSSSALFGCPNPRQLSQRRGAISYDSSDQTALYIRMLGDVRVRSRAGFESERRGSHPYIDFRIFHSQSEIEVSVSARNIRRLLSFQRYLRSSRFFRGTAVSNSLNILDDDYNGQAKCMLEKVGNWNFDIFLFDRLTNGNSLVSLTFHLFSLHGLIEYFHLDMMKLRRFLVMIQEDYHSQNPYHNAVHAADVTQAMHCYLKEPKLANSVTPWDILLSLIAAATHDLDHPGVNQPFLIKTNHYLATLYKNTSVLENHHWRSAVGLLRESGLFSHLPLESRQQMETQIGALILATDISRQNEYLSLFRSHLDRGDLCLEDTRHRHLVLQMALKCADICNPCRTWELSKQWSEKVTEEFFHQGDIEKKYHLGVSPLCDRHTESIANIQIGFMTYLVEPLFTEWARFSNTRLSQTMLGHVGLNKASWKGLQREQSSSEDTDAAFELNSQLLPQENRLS

| inhibition [%] | Structure (SMILES) |
| --- | --- |
| 23 | CCc1nn(C)c2nc(-c3ccc4c(c3)COB4O)nc(NCc3ccc(F)cc3)c12 |
| 62 | CCc1nn(C)c2nc(-c3ccc(B(O)O)cc3)nc(NCc3ccc(F)cc3)c12 |

Each compound was assayed against Cytochrome P450 2B6 (Homo sapiens, UniProt P20813) (assay: Inhibition of CYP2B6 (unknown origin) incubated for 20 mins by fast gradient LC-MS analysis). Details: not given.

| Structure (SMILES) | IC50 [µM] |
| --- | --- |
| COC(=O)[C@H](c1ccccc1Cl)N1CCc2sccc2C1 [CLOPIDOGREL] | 0.2 |

These compounds were tested against High affinity cAMP-specific and IBMX-insensitive 3',5'-cyclic phosphodiesterase 8A (Homo sapiens) (UniProt O60658) (assay: Inhibition of human PDE8A1 at 10 uM by Eurofins kinase assay relative to control). Details: not given.
Sequence of High affinity cAMP-specific and IBMX-insensitive 3',5'-cyclic phosphodiesterase 8A (Homo sapiens) (O60658 whole entry): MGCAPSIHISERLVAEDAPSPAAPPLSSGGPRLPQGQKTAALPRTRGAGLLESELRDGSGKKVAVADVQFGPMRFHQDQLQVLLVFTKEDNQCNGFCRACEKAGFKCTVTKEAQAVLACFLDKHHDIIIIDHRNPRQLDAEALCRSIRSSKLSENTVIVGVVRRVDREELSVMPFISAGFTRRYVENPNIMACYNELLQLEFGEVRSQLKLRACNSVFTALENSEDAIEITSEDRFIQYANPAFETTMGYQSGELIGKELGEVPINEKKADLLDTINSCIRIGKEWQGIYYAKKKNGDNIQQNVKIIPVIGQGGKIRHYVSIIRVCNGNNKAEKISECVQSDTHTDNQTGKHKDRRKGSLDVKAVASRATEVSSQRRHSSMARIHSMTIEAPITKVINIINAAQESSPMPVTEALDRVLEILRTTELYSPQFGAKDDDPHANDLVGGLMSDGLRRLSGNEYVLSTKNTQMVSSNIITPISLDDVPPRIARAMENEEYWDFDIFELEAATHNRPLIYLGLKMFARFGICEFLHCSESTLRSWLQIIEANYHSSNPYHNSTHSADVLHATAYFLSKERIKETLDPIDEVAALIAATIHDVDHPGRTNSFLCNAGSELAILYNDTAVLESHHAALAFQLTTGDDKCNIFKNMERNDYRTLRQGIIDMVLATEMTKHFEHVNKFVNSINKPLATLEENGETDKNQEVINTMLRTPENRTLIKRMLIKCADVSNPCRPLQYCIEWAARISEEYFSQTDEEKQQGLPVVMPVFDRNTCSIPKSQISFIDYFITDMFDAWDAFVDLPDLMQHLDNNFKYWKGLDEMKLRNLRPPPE

| inhibition [%] | Structure (SMILES) |
| --- | --- |
| 20 | CCc1nn(C)c2nc(-c3ccc4c(c3)COB4O)nc(NCc3ccc(F)cc3)c12 |
| 29 | CCc1nn(C)c2nc(-c3ccc(B(O)O)cc3)nc(NCc3ccc(F)cc3)c12 |

The compounds below were run on HCT-8 (assay: Cytotoxicity against human HCT-8 cells assessed as reduction in cell numbers upto 50 uM incubated for 48 hrs by high-density microscopic celltiter aqueous assay). Details: hct-8, 48 h.
Assay type: toxicity, cell-based

| Structure (SMILES) | Activity |
| --- | --- |
| CCc1nn(C)c2nc(-c3ccc4c(c3)COC4=O)nc(NCc3ccc(F)cc3)c12 | Non-toxic |
| CCc1nn(C)c2nc(-c3cccc(C(=O)O)c3)nc(NCc3ccc(F)cc3)c12 | Non-toxic |
| CCc1nn(C)c2nc(-c3ccc(C#N)cc3)nc(NCc3ccc(F)cc3)c12 | Non-toxic |
| CCOC(=O)c1ccc(-c2nc(NCc3ccc(F)cc3)c3c(CC)nn(C)c3n2)cc1 | Non-toxic |
| CCc1nn(C)c2nc(-c3ccc(C4CCC(C(=O)O)CC4)cc3)nc(NCc3ccc(F)cc3)c12 (centres undefined) | Non-toxic |
| CCc1nn(C)c2ncnc(NCc3ccc(F)cc3)c12 | Non-toxic |
| CCc1nn(C)c2nc(-c3ccc4c(c3)OCO4)nc(NCc3ccc(F)cc3)c12 | Non-toxic |
| CCc1nn(C)c2nc(-c3ccc(C(=O)O)nc3)nc(NCc3ccc(F)cc3)c12 | Non-toxic |
| CCc1nn(C)c2nc(-c3ccc(N4CCC(C(=O)O)CC4)cc3)nc(NCc3ccc(F)cc3)c12 | Non-toxic |
| CCc1nn(C)c2nc(-c3cccc(S(N)(=O)=O)c3)nc(NCc3ccc(F)cc3)c12 | Non-toxic |
| CCc1nn(C)c2nc(-c3cccc(OC)c3)nc(NCc3ccc(F)cc3)c12 | Non-toxic |
| CCc1nn(C)c2nc(-c3ccc(OC)c(OC)c3)nc(NCc3ccc(F)cc3)c12 | Non-toxic |
| CCc1nn(C)c2nc(-c3ccc(F)c(C(=O)O)c3)nc(NCc3ccc(F)cc3)c12 | Non-toxic |
| CCc1nn(C)c2nc(-c3c(C)noc3C)nc(NCc3ccc(F)cc3)c12 | Non-toxic |
| CCOC(=O)c1cccc(-c2nc(NCc3ccc(F)cc3)c3c(CC)nn(C)c3n2)c1 | Non-toxic |
| CCc1nn(C)c2nc(-c3ccc4c(c3)COB4O)nc(NCc3ccc(F)cc3)c12 | Non-toxic |
| CCc1nn(C)c2nc(-c3ccc(OC)cc3)nc(NCc3ccc(F)cc3)c12 | Non-toxic |
| CC(=O)Oc1ccccc1C(=O)Nc1ncc([N+](=O)[O-])s1 [NITAZOXANIDE] | Non-toxic |
| CCc1nn(C)c2nc(-c3ccc(B(O)O)cc3)nc(NCc3ccc(F)cc3)c12 | Non-toxic |

The compounds below were run against cGMP-specific 3',5'-cyclic phosphodiesterase (Homo sapiens) (UniProt O76074) (assay: Inhibition of human PDE5 at 10 uM by Eurofins kinase assay relative to control). Details: not given.

| inhibition [%] | Structure (SMILES) |
| --- | --- |
| 80 | CCc1nn(C)c2nc(-c3ccc4c(c3)COB4O)nc(NCc3ccc(F)cc3)c12 |
| 73 | CCc1nn(C)c2nc(-c3ccc(B(O)O)cc3)nc(NCc3ccc(F)cc3)c12 |

Species on record: Homo sapiens
Assay: Inhibition of human PDE6 at 10 uM by Eurofins kinase assay relative to control
Details: not given

| inhibition [%] | Structure (SMILES) |
| --- | --- |
| 63 | CCc1nn(C)c2nc(-c3ccc4c(c3)COB4O)nc(NCc3ccc(F)cc3)c12 |
| 98 | CCc1nn(C)c2nc(-c3ccc(B(O)O)cc3)nc(NCc3ccc(F)cc3)c12 |

The compounds below were run on Cryptosporidium parvum (assay: Antiparasitic activity against Cryptosporidium parvum Iowa oocyst infected in NOD SCID gamma mouse model assessed as reduction in parasite fecal shedding at 50 mg/kg, po administered twice daily for 7 days starting from day 7 post infection and measured on day 21 by qPCR analysis). Details: time 14.0 day.
Assay type: functional, organism-based

| Structure (SMILES) | Activity |
| --- | --- |
| CCc1nn(C)c2nc(-c3ccc4c(c3)COB4O)nc(NCc3ccc(F)cc3)c12 | Active |
| CCc1nn(C)c2nc(-c3ccc(B(O)O)cc3)nc(NCc3ccc(F)cc3)c12 | Active |

Species on record: Homo sapiens
Assay: Inhibition of human PDE1B at 10 uM by Eurofins kinase assay relative to control
Details: not given

| inhibition [%] | Structure (SMILES) |
| --- | --- |
| -7.2 | CCc1nn(C)c2nc(-c3ccc4c(c3)COB4O)nc(NCc3ccc(F)cc3)c12 |
| 31 | CCc1nn(C)c2nc(-c3ccc(B(O)O)cc3)nc(NCc3ccc(F)cc3)c12 |

The compounds below were run on Cryptosporidium parvum (assay: Antiparasitic activity against Cryptosporidium parvum Iowa oocyst infected in human HCT-8 cells assessed as reduction in asexual replication pre-infected with cells for 3 hrs followed by compound addition and measured after 48 hrs by staining based automated fluorescence microscopic analysis). Details: not given.
Assay type: functional, organism-based

| EC50 [µM] | Structure (SMILES) |
| --- | --- |
| > 50 | CCc1nn(C)c2nc(-c3ccc4c(c3)COC4=O)nc(NCc3ccc(F)cc3)c12 |
| 1.2 | CCc1nn(C)c2nc(-c3cccc(C(=O)O)c3)nc(NCc3ccc(F)cc3)c12 |
| > 25 | CCc1nn(C)c2nc(-c3ccc(C#N)cc3)nc(NCc3ccc(F)cc3)c12 |
| > 25 | CCOC(=O)c1ccc(-c2nc(NCc3ccc(F)cc3)c3c(CC)nn(C)c3n2)cc1 |
| 4.4 | CCc1nn(C)c2nc(-c3ccc(C4CCC(C(=O)O)CC4)cc3)nc(NCc3ccc(F)cc3)c12 (centres undefined) |
| > 50 | CCc1nn(C)c2ncnc(NCc3ccc(F)cc3)c12 |
| > 50 | CCc1nn(C)c2nc(-c3ccc4c(c3)OCO4)nc(NCc3ccc(F)cc3)c12 |
| 4.7 | CCc1nn(C)c2nc(-c3ccc(C(=O)O)nc3)nc(NCc3ccc(F)cc3)c12 |
| 11 | CCc1nn(C)c2nc(-c3ccc(N4CCC(C(=O)O)CC4)cc3)nc(NCc3ccc(F)cc3)c12 |
| 2.5 | CCc1nn(C)c2nc(-c3cccc(S(N)(=O)=O)c3)nc(NCc3ccc(F)cc3)c12 |
| 15 | CCc1nn(C)c2nc(-c3cccc(OC)c3)nc(NCc3ccc(F)cc3)c12 |
| 7.2 | CCc1nn(C)c2nc(-c3ccc(OC)c(OC)c3)nc(NCc3ccc(F)cc3)c12 |
| 5.2 | CCc1nn(C)c2nc(-c3ccc(F)c(C(=O)O)c3)nc(NCc3ccc(F)cc3)c12 |
| 4.5 | CCc1nn(C)c2nc(-c3c(C)noc3C)nc(NCc3ccc(F)cc3)c12 |
| 5.5 | CCOC(=O)c1cccc(-c2nc(NCc3ccc(F)cc3)c3c(CC)nn(C)c3n2)c1 |
| 15 | CCc1nn(C)c2nc(-c3ccc(OC)cc3)nc(NCc3ccc(F)cc3)c12 |
| 0.78 | CCc1nn(C)c2nc(-c3ccc(B(O)O)cc3)nc(NCc3ccc(F)cc3)c12 |

Each compound was assayed against Dual 3',5'-cyclic-AMP and -GMP phosphodiesterase 11A (Homo sapiens) (UniProt Q9HCR9) (assay: Inhibition of human PDE11A at 10 uM by Eurofins kinase assay relative to control). Details: not given.

| inhibition [%] | Structure (SMILES) |
| --- | --- |
| 82 | CCc1nn(C)c2nc(-c3ccc(B(O)O)cc3)nc(NCc3ccc(F)cc3)c12 |

Species on record: Homo sapiens
Assay: Inhibition of human PDE4A1A at 10 uM by Eurofins kinase assay relative to control
Details: not given

| inhibition [%] | Structure (SMILES) |
| --- | --- |
| 54 | CCc1nn(C)c2nc(-c3ccc4c(c3)COB4O)nc(NCc3ccc(F)cc3)c12 |
| 93 | CCc1nn(C)c2nc(-c3ccc(B(O)O)cc3)nc(NCc3ccc(F)cc3)c12 |

The compounds below were run against 3',5'-cyclic-AMP phosphodiesterase 4B (Homo sapiens) (UniProt Q07343) (assay: Inhibition of human PDE4B1 at 10 uM by Eurofins kinase assay relative to control). Details: not given.
Sequence of 3',5'-cyclic-AMP phosphodiesterase 4B (Homo sapiens) (Q07343 whole entry): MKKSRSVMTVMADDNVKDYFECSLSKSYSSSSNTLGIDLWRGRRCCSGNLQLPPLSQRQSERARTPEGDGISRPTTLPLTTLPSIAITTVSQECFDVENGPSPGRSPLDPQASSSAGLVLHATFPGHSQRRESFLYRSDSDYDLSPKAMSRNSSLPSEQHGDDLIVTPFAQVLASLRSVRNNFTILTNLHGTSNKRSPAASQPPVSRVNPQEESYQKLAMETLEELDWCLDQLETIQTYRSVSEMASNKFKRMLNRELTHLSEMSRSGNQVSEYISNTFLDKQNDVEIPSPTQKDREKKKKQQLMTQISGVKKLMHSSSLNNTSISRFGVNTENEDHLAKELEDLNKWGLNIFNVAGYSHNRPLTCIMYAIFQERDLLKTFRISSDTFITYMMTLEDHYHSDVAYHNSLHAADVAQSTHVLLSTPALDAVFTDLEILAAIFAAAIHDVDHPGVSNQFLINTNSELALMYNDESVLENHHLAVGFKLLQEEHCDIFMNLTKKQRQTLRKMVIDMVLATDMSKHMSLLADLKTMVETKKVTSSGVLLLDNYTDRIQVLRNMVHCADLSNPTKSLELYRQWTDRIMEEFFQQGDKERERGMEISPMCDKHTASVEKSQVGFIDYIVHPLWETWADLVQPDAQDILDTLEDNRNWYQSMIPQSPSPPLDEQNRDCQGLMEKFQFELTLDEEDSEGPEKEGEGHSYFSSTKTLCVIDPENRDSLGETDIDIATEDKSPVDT

| inhibition [%] | Structure (SMILES) |
| --- | --- |
| 73 | CCc1nn(C)c2nc(-c3ccc4c(c3)COB4O)nc(NCc3ccc(F)cc3)c12 |
| 96 | CCc1nn(C)c2nc(-c3ccc(B(O)O)cc3)nc(NCc3ccc(F)cc3)c12 |

Each compound was assayed against cGMP-inhibited 3',5'-cyclic phosphodiesterase 3B (Homo sapiens) (UniProt Q13370) (assay: Inhibition of human PDE3B at 10 uM by Eurofins kinase assay relative to control). Details: not given.

| inhibition [%] | Structure (SMILES) |
| --- | --- |
| 8 | CCc1nn(C)c2nc(-c3ccc4c(c3)COB4O)nc(NCc3ccc(F)cc3)c12 |
| 45 | CCc1nn(C)c2nc(-c3ccc(B(O)O)cc3)nc(NCc3ccc(F)cc3)c12 |

The compounds below were run against cGMP-dependent 3',5'-cyclic phosphodiesterase (Homo sapiens) (UniProt O00408) (assay: Inhibition of human PDE2A1 at 10 uM by Eurofins kinase assay relative to control). Details: not given.
Sequence of cGMP-dependent 3',5'-cyclic phosphodiesterase (Homo sapiens) (O00408 whole entry): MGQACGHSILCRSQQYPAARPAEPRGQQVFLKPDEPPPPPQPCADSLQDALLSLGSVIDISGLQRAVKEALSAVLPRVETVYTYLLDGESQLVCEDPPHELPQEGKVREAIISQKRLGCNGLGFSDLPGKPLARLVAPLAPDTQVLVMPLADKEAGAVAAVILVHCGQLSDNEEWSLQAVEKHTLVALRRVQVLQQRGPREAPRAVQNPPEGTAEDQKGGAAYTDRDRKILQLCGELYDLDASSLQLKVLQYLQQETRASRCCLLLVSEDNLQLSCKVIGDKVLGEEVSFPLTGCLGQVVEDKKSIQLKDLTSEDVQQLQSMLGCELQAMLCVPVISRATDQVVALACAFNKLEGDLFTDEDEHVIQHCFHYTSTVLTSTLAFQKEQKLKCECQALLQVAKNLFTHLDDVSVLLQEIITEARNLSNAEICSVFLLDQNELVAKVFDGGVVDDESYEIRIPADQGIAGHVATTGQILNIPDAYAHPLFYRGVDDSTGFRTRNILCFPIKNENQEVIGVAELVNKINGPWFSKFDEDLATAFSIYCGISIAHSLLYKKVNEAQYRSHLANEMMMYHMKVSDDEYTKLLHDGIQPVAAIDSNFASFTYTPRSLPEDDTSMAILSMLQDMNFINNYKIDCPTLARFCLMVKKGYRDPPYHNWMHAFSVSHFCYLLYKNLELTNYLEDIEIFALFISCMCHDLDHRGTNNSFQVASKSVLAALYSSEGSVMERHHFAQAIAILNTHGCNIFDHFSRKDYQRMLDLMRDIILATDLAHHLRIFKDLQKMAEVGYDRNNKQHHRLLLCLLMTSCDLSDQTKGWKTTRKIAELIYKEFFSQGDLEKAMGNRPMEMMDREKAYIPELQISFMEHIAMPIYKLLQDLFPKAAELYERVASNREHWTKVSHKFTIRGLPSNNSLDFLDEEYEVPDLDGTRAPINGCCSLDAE

| inhibition [%] | Structure (SMILES) |
| --- | --- |
| 32 | CCc1nn(C)c2nc(-c3ccc4c(c3)COB4O)nc(NCc3ccc(F)cc3)c12 |
| 95 | CCc1nn(C)c2nc(-c3ccc(B(O)O)cc3)nc(NCc3ccc(F)cc3)c12 |

What follows are compounds tested against 3',5'-cyclic-AMP phosphodiesterase 4D (Homo sapiens, UniProt Q08499) (assay: Inhibition of human PDE4D2 at 10 uM by Eurofins kinase assay relative to control). Details: not given.
Sequence of 3',5'-cyclic-AMP phosphodiesterase 4D (Q08499 whole entry): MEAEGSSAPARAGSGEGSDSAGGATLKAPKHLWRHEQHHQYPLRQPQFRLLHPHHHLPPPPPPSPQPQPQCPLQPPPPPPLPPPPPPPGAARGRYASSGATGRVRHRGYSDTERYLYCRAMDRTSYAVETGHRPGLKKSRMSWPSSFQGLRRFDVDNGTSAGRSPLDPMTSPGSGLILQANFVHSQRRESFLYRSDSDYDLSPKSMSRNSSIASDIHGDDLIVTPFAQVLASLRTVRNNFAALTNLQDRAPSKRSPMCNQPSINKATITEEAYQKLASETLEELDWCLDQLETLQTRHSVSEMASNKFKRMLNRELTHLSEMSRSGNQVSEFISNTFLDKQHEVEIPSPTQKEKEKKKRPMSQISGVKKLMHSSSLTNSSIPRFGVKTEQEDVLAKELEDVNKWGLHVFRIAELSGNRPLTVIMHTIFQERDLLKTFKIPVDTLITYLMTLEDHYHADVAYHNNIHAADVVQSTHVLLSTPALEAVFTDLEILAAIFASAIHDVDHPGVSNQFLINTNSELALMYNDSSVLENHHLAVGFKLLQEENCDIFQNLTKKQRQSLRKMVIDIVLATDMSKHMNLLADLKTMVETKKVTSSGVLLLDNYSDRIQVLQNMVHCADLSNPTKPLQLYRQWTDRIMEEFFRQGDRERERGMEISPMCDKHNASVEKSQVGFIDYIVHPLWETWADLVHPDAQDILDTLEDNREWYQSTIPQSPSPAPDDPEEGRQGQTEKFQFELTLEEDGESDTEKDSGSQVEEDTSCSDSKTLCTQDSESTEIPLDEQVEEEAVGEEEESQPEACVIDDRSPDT

| inhibition [%] | Structure (SMILES) |
| --- | --- |
| 27 | CCc1nn(C)c2nc(-c3ccc4c(c3)COB4O)nc(NCc3ccc(F)cc3)c12 |
| 91 | CCc1nn(C)c2nc(-c3ccc(B(O)O)cc3)nc(NCc3ccc(F)cc3)c12 |
